Assay results: patent publication US20260327246A1, “FUSED RING KRAS INHIBITORS FOR TREATING DISEASE” (BLOSSOMHILL THERAPEUTICS, INC., priority 2023, published 2026)

What was measured:
GP2D (KRAS G12D) = test: Cell Proliferation Assay (CellTiter-Glo 2.0), GP2D; format: cell-based; conditions: GP2D (KRAS G12D) cells; 72 hours at 37° C., 5% CO2; read-out: Anti-proliferation IC50, GP2D (KRAS G12D)
Protocol: (§1) Two thousand KRAS mutant cells per well are seeded in 384-well white plate and then treated with indicated compounds for 72 hours at 37° C. and 5% CO2. Cell proliferation is measured using CellTiter-Glo 2.0 luciferase-based ATP detection assay (Promega, Madison, WI) following the manufacturer's protocol. IC50 values are determined using Prism software (GraphPad Software, San Diego, CA).

SW620 (KRAS G12V) = test: Cell Proliferation Assay (CellTiter-Glo 2.0), SW620; format: cell-based; conditions: Homo sapiens, SW-620; SW620 (KRAS G12V) cells; 72 hours at 37° C., 5% CO2; read-out: Anti-proliferation IC50, SW620 (KRAS G12V)
Protocol: as §1

IC50 (SW620 (KRAS G12V)) [nM]	SMILES	IC50 (GP2D (KRAS G12D)) [nM]
3.6	C#Cc1c(F)ccc2cc(O)cc(-c3nc4c5c(nc(OC[C@@]67CCCN6C[C@H](F)C7)nc5c3F)N3CCCOC[C@H]3CC4)c12 [compound 1, 5-ethynyl-6-fluoro-4-[(8aR)-4-fluoro-2-{[(2R,7aS)-2-fluorotetrahydro-1H-pyrrolizin-7a(5H)-yl]methoxy}-7,8,8a,9,12,13-hexahydro-11H-10-oxa-1,3,6,13a-tetraazanaphtho[1,8-ab]heptalen-5-yl]naphthalen-2-ol]	1.1
592	C#Cc1c(F)ccc2cc(O)cc(-c3nc4c5c(nc(OC[C@@]67CCCN6C[C@H](F)C7)nc5c3F)N3CCCOC[C@@H]3CC4)c12 [compound 2, 5-ethynyl-6-fluoro-4-[(8aS)-4-fluoro-2-{[(2R,7aS)-2-fluorotetrahydro-1H-pyrrolizin-7a(5H)-yl]methoxy}-7,8,8a,9,12,13-hexahydro-11H-10-oxa-1,3,6,13a-tetraazanaphtho[1,8-ab]heptalen-5-yl]naphthalen-2-ol]	85
11	CCc1c(F)ccc2cc(O)cc(-c3nc4c5c(nc(OC[C@@]67CCCN6C[C@H](F)C7)nc5c3F)N3CCCOC[C@H]3CC4)c12 [compound 3, 5-ethyl-6-fluoro-4-[(8aR)-4-fluoro-2-{[(2R,7aS)-2-fluorotetrahydro-1H-pyrrolizin-7a(5H)-yl]methoxy}-7,8,8a,9,12,13-hexahydro-11H-10-oxa-1,3,6,13a-tetraazanaphtho[1,8-ab]heptalen-5-yl]naphthalen-2-ol]	6.3
304	CCc1c(F)ccc2cc(O)cc(-c3nc4c5c(nc(OC[C@@]67CCCN6C[C@H](F)C7)nc5c3F)N3CCCOC[C@@H]3CC4)c12 [compound 4, 5-ethyl-6-fluoro-4-[(8aS)-4-fluoro-2-{[(2R,7aS)-2-fluorotetrahydro-1H-pyrrolizin-7a(5H)-yl]methoxy}-7,8,8a,9,12,13-hexahydro-11H-10-oxa-1,3,6,13a-tetraazanaphtho[1,8-ab]heptalen-5-yl]naphthalen-2-ol]	135
20	C#Cc1c(F)ccc2cc(O)cc(-c3nc4c5c(nc(OC[C@@]67CCCN6C[C@H](F)C7)nc5c3F)N3CCOCC[C@H]3CC4)c12 [compound 5, 5-ethynyl-6-fluoro-4-[(8aR)-4-fluoro-2-{[(2R,7aS)-2-fluorotetrahydro-1H-pyrrolizin-7a(5H)-yl]methoxy}-8,8a,9,10,12,13-hexahydro-7H-11-oxa-1,3,6,13a-tetraazanaphtho[1,8-ab]heptalen-5-yl]naphthalen-2-ol]	4.2
26	CCc1c(F)ccc2cc(O)cc(-c3nc4c5c(nc(OC[C@@]67CCCN6C[C@H](F)C7)nc5c3F)N3CCOCC[C@H]3CC4)c12 [compound 6, 5-ethyl-6-fluoro-4-[(8aR)-4-fluoro-2-{[(2R,7aS)-2-fluorotetrahydro-1H-pyrrolizin-7a(5H)-yl]methoxy}-8,8a,9,10,12,13-hexahydro-7H-11-oxa-1,3,6,13a-tetraazanaphtho[1,8-ab]heptalen-5-yl]naphthalen-2-ol]	21
641	C#Cc1c(F)ccc2cc(O)cc(-c3nc4c5c(nc(OC[C@@]67CCCN6C[C@H](F)C7)nc5c3F)N3CCCC[C@H]3COC4)c12 [compound 9, 5-ethynyl-6-fluoro-4-[(6aS)-1-fluoro-12-{[(2R,7aS)-2-fluorotetrahydro-1H-pyrrolizin-7a(5H)-yl]methoxy}-6,6a,7,8,9,10-hexahydro-4H-5-oxa-3,10a,11,13-tetraazabenzo[4,5]cycloocta[1,2,3-de]naphthalen-2-yl]naphthalen-2-ol]	102
3000	C#Cc1c(F)ccc2cc(O)cc(-c3nc4c5c(nc(OC[C@@]67CCCN6C[C@H](F)C7)nc5c3F)N3CCC[C@H]3COC4)c12 [compound 10, 5-ethynyl-6-fluoro-4-[(6aS)-1-fluoro-11-{[(2R,7aS)-2-fluorotetrahydro-1H-pyrrolizin-7a(5H)-yl]methoxy}-6a,7,8,9-tetrahydro-4H,6H-5-oxa-3,9a,10,12-tetraazacyclopenta[4,5]cycloocta[1,2,3-de]naphthalen-2-yl]naphthalen-2-ol]	3000
39	C#Cc1c(F)ccc2cc(O)cc(-c3nc4c5c(nc(OC[C@@]67CCCN6C[C@H](F)C7)nc5c3F)N3CCCC[C@H]3C4)c12 [compound 13, 5-ethynyl-6-fluoro-4-((S)-4-fluoro-2-(((2R,7aS)-2-fluorotetrahydro-1H-pyrrolizin-7a(5H)-yl)methoxy)-7,7a,8,9,10,11-hexahydropyrido[1,2-g]pyrimido[4,5,6-de][1,6]naphthyridin-5-yl)naphthalen-2-ol]	3.9
130	C#Cc1c(F)ccc2cc(O)cc(-c3nc4c5c(nc(OC[C@@]67CCCN6C[C@H](F)C7)nc5c3F)N3CCOC[C@H]3C4)c12 [compound 18, 5-ethynyl-6-fluoro-4-((R)-4-fluoro-2-(((2R,7aS)-2-fluorotetrahydro-1H-pyrrolizin-7a(5H)-yl)methoxy)-7a,8,10,11-tetrahydro-7H-[1,4]oxazino[4,3-g]pyrimido[4,5,6-de][1,6]naphthyridin-5-yl)naphthalen-2-ol]	123
47	C#Cc1c(F)ccc2cc(O)cc(-c3nc4c5c(nc(OC[C@@]67CCCN6C[C@H](F)C7)nc5c3F)N3CCCC[C@H]3CC4)c12 [compound 20, 5-ethynyl-6-fluoro-4-[(8aS)-4-fluoro-2-{[(2R,7aS)-2-fluorotetrahydro-1H-pyrrolizin-7a(5H)-yl]methoxy}-8,8a,9,10,11,12-hexahydro-7H-1,3,6,12a-tetraazabenzo[4,5]cyclohepta[1,2,3-de]naphthalen-5-yl]naphthalen-2-ol]	10
20	C#Cc1c(F)ccc2cc(O)cc(-c3nc4c5c(nc(OC[C@@]67CCCN6C[C@H](F)C7)nc5c3F)N3CCCCC3C=C4)c12 (stereo partly drawn) [compound 21, 5-ethynyl-6-fluoro-4-(4-fluoro-2-{[(2R,7aS)-2-fluorotetrahydro-1H-pyrrolizin-7a(5H)-yl]methoxy}-9,10,11,12-tetrahydro-8aH-1,3,6,12a-tetraazabenzo[4,5]cyclohepta[1,2,3-de]naphthalen-5-yl)naphthalen-2-ol]	2.9
248	C#Cc1c(F)ccc2cc(O)cc(-c3nc4c5c(nc(OC[C@@]67CCCN6C[C@H](F)C7)nc5c3F)N3CCCCCC3CC4)c12 (some centres unmarked) [compound 22]	32
1450	CCc1c(F)ccc2cc(O)cc(-c3nc4c5c(nc(OC[C@@]67CCCN6C[C@H](F)C7)nc5c3F)N3CCCCCC3CC4)c12 (stereo partly drawn) [compound 23, 5-ethyl-6-fluoro-4-(4-fluoro-2-{[(2R,7aS)-2-fluorotetrahydro-1H-pyrrolizin-7a(5H)-yl]methoxy}-7,8,8a,9,10,11,12,13-octahydro-1,3,6,13a-tetraazanaphtho[1,8-ab]heptalen-5-yl)naphthalen-2-ol]	172
91	C#Cc1c(F)ccc2cc(O)cc(-c3nc4c5c(nc(OCC6(CN(C)C)CC6(F)F)nc5c3F)N3CCCCC3CC4)c12 (centres unmarked) [compound 24, 4-[2-({1-[(dimethylamino)methyl]-2,2-difluorocyclopropyl}methoxy)-4-fluoro-8,8a,9,10,11,12-hexahydro-7H-1,3,6,12a-tetraazabenzo[4,5]cyclohepta[1,2,3-de]naphthalen-5-yl]-5-ethynyl-6-fluoronaphthalen-2-ol]	23
638	C#Cc1c(F)ccc2cc(O)cc(-c3nc4c5c(nc(OC[C@@]67CCCN6C[C@H](F)C7)nc5c3F)N3CCOCC[C@@H]3CC4)c12 [compound 25, 5-ethynyl-6-fluoro-4-[(8aS)-4-fluoro-2-{[(2R,7aS)-2-fluorotetrahydro-1H-pyrrolizin-7a(5H)-yl]methoxy}-8,8a,9,10,12,13-hexahydro-7H-11-oxa-1,3,6,13a-tetraazanaphtho[1,8-ab]heptalen-5-yl]naphthalen-2-ol]	276
557	CCc1c(F)ccc2cc(O)cc(-c3nc4c5c(nc(OC[C@@]67CCCN6C[C@H](F)C7)nc5c3F)N3CCOCC[C@@H]3CC4)c12 [compound 26, 5-ethyl-6-fluoro-4-[(8aS)-4-fluoro-2-{[(2R,7aS)-2-fluorotetrahydro-1H-pyrrolizin-7a(5H)-yl]methoxy}-8,8a,9,10,12,13-hexahydro-7H-11-oxa-1,3,6,13a-tetraazanaphtho[1,8-ab]heptalen-5-yl]naphthalen-2-ol]	321
32	C#Cc1c(F)ccc2cc(O)cc(-c3nc4c5c(nc(OC[C@@]67CCCN6C[C@H](F)C7)nc5c3F)N3CCCC[C@@H]3CC4)c12 [compound 27, 5-ethynyl-6-fluoro-4-[(8aR)-4-fluoro-2-{[(2R,7aS)-2-fluorotetrahydro-1H-pyrrolizin-7a(5H)-yl]methoxy}-8,8a,9,10,11,12-hexahydro-7H-1,3,6,12a-tetraazabenzo[4,5]cyclohepta[1,2,3-de]naphthalen-5-yl]naphthalen-2-ol]	10
787	C#Cc1c(F)ccc2cc(O)cc(-c3nc4c5c(nc(OC[C@@]67CCCN6C[C@H](F)C7)nc5c3F)N3CCCCC3C(C#N)C4)c12 (stereo partly drawn) [compound 28, 5-(8-ethynyl-7-fluoro-3-hydroxynaphthalen-1-yl)-4-fluoro-2-{[(2R,7aS)-2-fluorotetrahydro-1H-pyrrolizin-7a(5H)-yl]methoxy}-8,8a,9,10,11,12-hexahydro-7H-1,3,6,12a-tetraazabenzo[4,5]cyclohepta[1,2,3-de]naphthalene-8-carbonitrile]	61
